The values that follow come from patent publication US20210388018A1, “METHYL AND ETHYL NICOTINATE-RIBOSIDE-5-PHOSPHATES, PREPARATION THEREOF AND METHODS OF USE THEREOF” (Cornell University, priority 2018, published 2021).

Where “and” joins values, the source holds several entries; their conditions need not be identical. Equal entries are not always repeated.

One experiment concerns Neuro2a cells. In words: Intracellular NAD+ in Neuro2a cells after NaMN or NR (diaphorase-based assay). It counts as cell-based. To be noted: 1 mM, 8 h incubation, FIG. 1. As to the method:
(§1) The ability of nicotinic acid mononucleotide, NaMN, to serve as an NAD^+ enhancing agent in mammalian cell lines, Neuro2a and HEK293 cells was examined after an 8 h incubation. NaMN was added to cell growth media at a concentration of 1 mM. All cell treatments were done in duplicate. Nicotinamide riboside (NR) at 1 mM concentration was performed as a positive control. Untreated cells served as negative controls. Cells were treated for the allotted time then harvested by trysin detachment and pelleting. Cells were counted by haemocytometer and then lysed by treatment with 100 μL perchloric acid (7%). Lysates were then neutralized by treatment with NaOH and K2PO4 solutions. NAD^+ concentrations were determined by a diaphorase-based assay. NAD^+ standards were also run to establish a standard curve. The results are graphically depicted in FIG. 1.

Experiment [1] relates to HEK293 cells. The experiment is described as follows: Intracellular NAD+ in HEK293 cells after NaMN or NR (diaphorase-based assay). The conditions noted are these: HEK293, 1 mM, 8 h incubation, FIG. 1. In kind it is cell-based, human. Here is the method: as §1
The next experiment concerns C2C12 cells. The experiment is described as follows: Cellular NAD at 14 h in C2C12 cells (cycling assay). Further details: cellular NAD: unit not given here. In kind it is cell-based, murine. As to the method: (§2) Neu2a, HEK293, HEPG2 and C2C12 cells were cultured and the dosage of the corresponding compound was increased by amounts of 0, 100 μM, 400 μM and 800 μM for each cell line. Each experiment was performed in triplicate. Cells were incubated for a period of 14 hr. At termination of incubation, media was removed and cells were treated with trypsin to gently detach and cells counted. Cell pellets were obtained by centrifugation, and then […] of 7% perchloric acid was added to extract NAD. Extracts obtained were then neutralized by addition of NaOH and 250 mM potassium phosphate buffer pH 8.5. NAD was determined by a cycling assay that measures NAD concentrations by comparison to a standard curve (Li et al., 2015).

Experiment [2] has as its system tissue NAD concentrations. In words: Tissue NAD concentrations in mice 4 h after i.p. injection (cycling assay). It counts as in vivo. To be noted: 500 mg/kg i.p. single dose, vs PBS control. As to the method:
Sterile solutions of O-methyl-NaMN and O-ethylNaMN were prepared by combination with phosphate buffered saline for injection into mice. Mice were injected by intraperitoneal injection at a single dosage of 500 mg/kg. All mice were weighed to achieve correct injection volume. Each group was composed of 5 mice, and mice were sacrificed at 4 hours. Control mice received only PBS. At sacrifice, mice were first injected with an anesthetic dose of ketamine to obtain blood by cardiac puncture. Then mice were euthanized and tissues harvested and frozen immediately in liquid nitrogen.
To determine tissue NAD concentrations, tissues were weighed and pulverized in liquid nitrogen. Perchloric acid (7%) was then added to pulverized tissue samples and neutralized by NaOH and 250 mM potassium phosphate buffer pH 8.5. Samples were pelleted to remove insoluble material. NAD concentrations were determined by cycling assay as published (Li et al., Methods in molecular biology 1241, 39-48, doi:10.1007/978-1-4939-1875-1_4 (2015)). […] This property is desirable, as effects expected from NAD enhancement in muscle include mitochondrial biogenesis and improved insulin sensitivity, as noted for other agents that increase NAD concentrations in this tissue^3. In fact, the extent of NAD raising exceeds those observed for other agents.

The test system of experiment [3] is HEK293 cells. The experiment is described as follows: Cellular NAD at 14 h in HEK293 cells (cycling assay). It counts as cell-based, human. Further details: unit not given here. As to the method: as §2
For another experiment, the system named is HEPG2 cells. The experiment is described as follows: Cellular NAD at 14 h in HEPG2 cells (cycling assay). Further details: unit not given here. It counts as cell-based. Here is the method:
as §2

A further experiment deals with HEK-293 cells. In words: NAD+ concentration in HEK-293 cells after 24 h EtNaMN (NAD+ cycling assay). It counts as cell-based, human. As to the method: HEK-293 cells were treated with 0 μM, 250 μM, and 500 μM of ((2R,3R,4S,5R)-3,4-dihydroxy-5-(3-(ethoxycarbonyl)pyridin-1-ium-1-yl)tetrahydrofuran-2-yl)methyl hydrogen phosphate (EtNaMN) at an initial density of 500,000 cells per well. After 24 h treatment, the NAD^+ concentration was determined using a known NAD^+ cycling assay (Jacobson, E. L. et al., Arch. Biochem. Biophys., 175: 627-634 (1976)). The cells were washed with PBS, counted by haemocytometry and pelleted. The cells were then treated with 7% perchloric acid, and then neutralized with 1 M NaOH and 500 mM potassium phosphate pH 8.5. NAD^+ contents were then measured on a plate reader using diaphorase and lactate dehydrogenase using Resazurin as a dye that is reduced to rezarufin (emission 560 nm). NAD^+ levels were quantitated using a standard curve using known NAD^+ concentrations. NAD^+ concentrations are determined to nmol NAD^+/10^6 cells.

For the next experiment, the system named is Neu2a cells. In words: Cellular NAD at 14 h in Neu2a cells (cycling assay). In kind it is cell-based. Further details: cellular NAD: unit not given here. As to the method: as §2

With `NC(=O)c1ccc[n+]([C@@H]2O[C@H](CO)[C@@H](O)[C@H]2O)c1` [NR, Nicotinamide riboside], the “intracellular NAD+ content vs untreated cells” value in the experiment on Neuro2a cells and in the experiment with HEK293 cells [1] was “increased NAD^+ contents in cells” throughout.
Turning to `O=C(O)c1ccc[n+]([C@@H]2O[C@H](COP(=O)(O)O)[C@@H](O)[C@H]2O)c1` [NaMN, nicotinic acid mononucleotide], the “intracellular NAD+ content vs untreated cells” value in the experiment on Neuro2a cells and with HEK293 cells [1] was “No intracellular increase in NAD^+” in each case.
In the case of `CCOC(=O)c1ccc[n+]([C@@H]2O[C@H](COP(=O)([O-])O)[C@H](O)[C@@H]2O)c1` [O-EtNaMN, ((2R,3R,4S,5R)-3,4-dihydroxy-5-(3-(ethoxycarbonyl)pyridin-1-ium-1-yl)tetrahydrofuran-2-yl)methyl hydrogen phosphate], the “increase in NAD concentrations vs control” value with C2C12 cells (800 μM, cell line not given, figures fit C2C12) is 68%. Also, the “cellular NAD” value in the experiment on C2C12 cells (C2C12, 100 μM) is 1886 ± 183; in the experiment with C2C12 cells (C2C12, 400 μM), 1766 ± 69.5; in the experiment on C2C12 cells (C2C12, 800 μM), 2320 ± 208; in the experiment with HEK293 cells [3] (HEK293, 100 μM), 1128 ± 95; in the experiment with HEK293 cells [3] (HEK293, 400 μM), 1144 ± 132; with HEK293 cells [3] (HEK293, 800 μM), 1133 ± 168. The “cellular NAD” value in the experiment with HEPG2 cells (HEPG2, 100 μM) came out at 2222 ± 99; in the experiment with HEPG2 cells (HEPG2, 400 μM) it was 2331 ± 429; in the experiment on HEPG2 cells (HEPG2, 800 μM) it was 2287 ± 181; with Neu2a cells (100 μM) it was 1624 ± 24; in the experiment on Neu2a cells (400 μM), 1727 ± 40.8; in the experiment with Neu2a cells (800 μM), 1744 ± 151. In addition, the “increase in tissue NAD, blood” value in experiment [2] is on record as “increases in blood were not apparent”. For the same compound, the “increase in tissue NAD, kidney” value in experiment [2] is reported as “approximately twofold”. Moreover, the “increase in tissue NAD, liver” value in experiment [2] (liver) is listed as “greater than twofold”. Besides, the “increase in tissue NAD, skeletal muscle” value in experiment [2] is “no apparent effect”. Further, the “NAD+ Concentration” value with HEK-293 cells (HEK293, 250 μM EtNaMN) was 220 μM ± 42 μM; in the experiment with HEK-293 cells (HEK293, 500 μM EtNaMN), 270 μM ± 35 μM. Also, the “NAD+ Concentration relative to control” value with HEK-293 cells (HEK293, 250 μM EtNaMN) was 1.29 and 1.29 ± 0.24; in the experiment on HEK-293 cells (HEK293, 500 μM EtNaMN) it was 1.59 and 1.59 ± 0.21. Further, the “increase in cellular NAD vs control” value with Neu2a cells (100 μM) is reported as approximately 40%. Also, the “increase in cellular NAD concentrations vs control” value in the experiment on Neu2a cells (800 μM) stood at 50%.
`COC(=O)c1ccc[n+]([C@@H]2O[C@H](COP(=O)([O-])O)[C@H](O)[C@@H]2O)c1` [O-MeNaMN, ((2R,3R,4S,5R)-3,4-dihydroxy-5-(3-(methoxycarbonyl)pyridin-1-ium-1-yl)tetrahydrofuran-2-yl)methyl hydrogen phosphate]: the “cellular NAD” value in the experiment on C2C12 cells (C2C12, 100 μM) is given as 2864 ± 565; in the experiment with C2C12 cells (C2C12, 400 μM), 2596 ± 572; with C2C12 cells (C2C12, 800 μM), 2574 ± 355; in the experiment with HEK293 cells [3] (HEK293, 100 μM), 1178 ± 65; in the experiment with HEK293 cells [3] (HEK293, 400 μM), 947 ± 101; in the experiment with HEK293 cells [3] (HEK293, 800 μM), 1440 ± 204. Moreover, the “cellular NAD” value with HEPG2 cells (HEPG2, 100 μM) is reported as 2227 ± 280; in the experiment with HEPG2 cells (HEPG2, 400 μM) it was 1663 ± 61; with HEPG2 cells (HEPG2, 800 μM), 2383 ± 155; with Neu2a cells (100 μM), 1204 ± 158; in the experiment on Neu2a cells (400 μM), 1523 ± 145; in the experiment on Neu2a cells (800 μM), 2125 ± 187. Also, the “increase in cellular NAD concentrations vs control” value with C2C12 cells (all concentrations tested (100, 400, 800 μM), cell line not given, figures fit C2C12) is “at least 70%”. The “increase in tissue NAD, blood” value in experiment [2] is reported as “Neither ethyl nor methyl derivatives appeared active as NAD enhancers in blood”. In addition, in experiment [2], the “increase in tissue NAD, kidney” value is approximately 2.5 fold. Further, the “increase in tissue NAD, skeletal muscle” value in experiment [2] is on record as “unique capability to increase skeletal muscle NAD concentrations”. Further, the “increase in cellular NAD concentrations vs control (fold, in words)” value with Neu2a cells (800 μM) is on record as “more than two fold”.
